Experiments:
Arabidopsis thaliana [1] = assay: Root growth-promoting activity test (Example 22); assay type: in vivo; settings: main root length vs control section, 22° C., 10 days
Description: (§1) Enshi standard medium having the following composition (see Table 18) was prepared. To cluster tubes was dispensed each 4 μl of a solution of a chemical substance in DMSO to a final concentration of 0.001 ppm to 10 ppm, and then, was dispensed each 600 μl of the sterilized Enshi standard medium. Then the resulting solution was well mixed. In each of the cluster tubes, 10-20 seeds of Arabidopsis thaliana were sown, and cultured at 22° C. for 10 days in the light. Then, the length of main roots (average main roots) generated from the seeds of Arabidopsis thaliana was measured. An average of eight repeats was determined, and a root growth rate was determined according to the following equation.
(§2) Root growth rate (%)=(Average main root length in chemical substance-treated section)/(Average main root length in control section)×100
Enshi standard medium determined having the following composition (Table 18) was prepared. A DMSO solution of a chemical substance was dispensed by 4 μl to cluster tubes to a final concentration of 0.001 ppm to 10 ppm and the sterilized Enshi standard medium was dispensed by 600 μl and then the resulting solution was well mixed. 10-20 seeds of A. thaliana per cluster tube were sown in the cluster tubes. After culture at 22° C. for 10 days in bright light, the length of main roots (average main roots) took from seeds of A. thaliana was measured. An average of eight repeats was determined and the root growth rate was determined.
Root growth rate (%)=(Average main root length of chemical substance-treated section)/(Average main root length of control section)×100

cytokinin receptor CRE1 = target: T1, cytokinin receptor CRE1 (Arabidopsis thaliana, UniProt Q9C5U0, S567G/T1018A); assay: Inhibition of intracellular signaling from plant-derived cytokinin receptor, growth of transformed yeast cell TM182-CRE1; assay type: cell-based; settings: trans-zeatin 0.6 ppm, chemical substance 2 ppm; for Relative growth rate (%) in test section of test substance to control section, Transformed cell TM182-CRE1: 30° C., 24 hours, turbidity OD 600; for Activity (%) of test substance for inhibiting intracellular signaling from plant-derived cytokinin receptor of cell: = 100 − relative growth rate of TM182-CRE1
T1 construct: expressed in transfected cells; host or cells: Saccharomyces cerevisiae TM182 (sln1Δ) transformed with p415CYC-CRE1
T1 sequence (Q9C5U0 24-1080 S567G/T1018A): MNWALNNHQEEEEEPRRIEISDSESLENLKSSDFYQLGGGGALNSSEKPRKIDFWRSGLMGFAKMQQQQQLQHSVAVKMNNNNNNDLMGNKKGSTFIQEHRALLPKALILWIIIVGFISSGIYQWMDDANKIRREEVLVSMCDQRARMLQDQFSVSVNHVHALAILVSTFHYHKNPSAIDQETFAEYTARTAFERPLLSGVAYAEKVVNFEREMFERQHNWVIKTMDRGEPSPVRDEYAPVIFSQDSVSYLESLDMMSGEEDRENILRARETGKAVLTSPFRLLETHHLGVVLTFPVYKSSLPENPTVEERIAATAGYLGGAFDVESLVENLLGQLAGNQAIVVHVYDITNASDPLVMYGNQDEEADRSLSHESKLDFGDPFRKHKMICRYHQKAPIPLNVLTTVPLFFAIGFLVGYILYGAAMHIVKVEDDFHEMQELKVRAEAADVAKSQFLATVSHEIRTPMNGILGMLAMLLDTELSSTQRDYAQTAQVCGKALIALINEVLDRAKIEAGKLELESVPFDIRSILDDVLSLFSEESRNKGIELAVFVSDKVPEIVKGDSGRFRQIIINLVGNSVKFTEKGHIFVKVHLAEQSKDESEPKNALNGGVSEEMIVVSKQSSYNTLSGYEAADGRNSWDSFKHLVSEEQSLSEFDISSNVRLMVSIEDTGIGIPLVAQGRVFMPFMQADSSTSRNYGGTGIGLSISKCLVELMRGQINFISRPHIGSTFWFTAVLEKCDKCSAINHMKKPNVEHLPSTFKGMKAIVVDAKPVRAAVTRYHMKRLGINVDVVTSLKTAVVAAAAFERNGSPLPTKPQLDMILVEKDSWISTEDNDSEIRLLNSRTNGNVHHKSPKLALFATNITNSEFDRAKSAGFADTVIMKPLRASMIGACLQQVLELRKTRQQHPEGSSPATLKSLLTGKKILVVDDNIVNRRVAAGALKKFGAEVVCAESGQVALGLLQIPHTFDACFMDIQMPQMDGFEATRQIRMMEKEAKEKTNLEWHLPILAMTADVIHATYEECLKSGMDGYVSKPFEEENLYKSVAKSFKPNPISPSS
Description: (§3) The transformed cell TM182-CRE1 and the transformed cell TM182-p415CYC1 obtained in Example 6 were each inoculated in 10 ml of a DOLU+Gal medium, and preincubated at 30° C. for 18 hours to obtain a preincubation liquid for each of the transformed cells. The preincubation liquid was diluted with a DOLU+Glu medium for the transformed cell TM182-CRE1 or with a DOLU+Gal medium for the transformed cell TM182-p415CYC1 until OD600=0.1 was reached, to obtain a preincubation dilution for each of the transformed cells.
(§4) To each well of a 96-well plate was added 1 μl of a 200 ppm solution of a test substance in dimethyl sulfoxide (DMSO) to prepare an Assay plate. At the same time, as controls, only 1 μl of DMSO was added to a part of wells. An assay plate for the transformed cell TM182-CRE1 and an assay plate for the transformed cell TM182-p415CYC1 were prepared.
(§5) A 10,000 ppm solution of trans-zeatin (cytokinin) in DMSO was 50-fold diluted with a DOLU+Gul medium to 200 ppm. The 200 ppm trans-zeatin solution was added in an amount of 3/1,000 volume to each of the above-described preincubation dilution to prepare each preincubation dilution containing trans-zeatin at 0.6 ppm. The 0.6 ppm preincubation dilution was added in an amount of 100 μl to each wells of the assay plate for each transformed cell. The plates were incubated at 30° C. for 24 hours. Then, turbidity (OD 600) of each well was measured by using a plate reader. The activity of the test substance for inhibiting intracellular signaling from a plant-derived cytokinin receptor of a cell was tested by comparing the measured turbidity with the turbidity of the control well.
(§6) (Relative growth rate in test section to control section) [%]=[(Turbidity in test section)−(Turbidity in blank)]/[(Turbidity in control section)−(Turbidity in blank)]×100 (Activity of inhibiting intracellular signaling from plant-derived cytokinin receptor of cell) [%]=100−(Relative growth rate in test section to control section)
(§7) In all cases, the existing concentration of trans-zeatin was adjusted to 0.6 ppm and the existing concentration of a chemical substance was adjusted to 2 ppm.
(§8) In all cases, the existing concentration of trans-zeatin was adjusted to 0.6 ppm and the existing concentration of a chemical substance was adjusted to 2 […].

[2] = system: transformed cell TM182-p415CYC1; assay: Control growth test with transformed yeast cell TM182-p415CYC1 (toxicity to yeast); assay type: cell-based; settings: trans-zeatin 0.6 ppm; chemical substance 2 ppm; 30° C., 24 hours; turbidity OD 600
Description: as §3, §4, §5, §6, §7, §8

Arabidopsis thaliana [3] = assay: Root growth-promoting activity test (Example 9); assay type: in vivo; settings: main root length vs control section, 22° C., 10 days
Description: as §1, with “10)” for “18)”
as §2

[4] = test final concentration 5 ppm (highest root growth rate)
[5] = test final concentration 5 ppm (concentration with highest root growth rate)
[6] = test final concentration 10 ppm (highest root growth rate)
[7] = test final concentration 10 ppm (concentration with highest root growth rate)
[8] = test final concentration 1.25 ppm (highest root growth rate)
[9] = test final concentration 1.25 ppm (concentration with highest root growth rate)
[10] = test final concentration 2.5 ppm (highest root growth rate)
[11] = test final concentration 2.5 ppm (concentration with highest root growth rate)

Structure (SMILES)	Relative growth rate (%) in test section of test substance to control section, Transformed cell TM182-CRE1 (cytokinin receptor CRE1)	Activity (%) of test substance for inhibiting intracellular signaling from plant-derived cytokinin receptor of cell (cytokinin receptor CRE1)	Relative growth rate (%) in test section of test substance to control section, Transformed cell TM182-p415CYC1 [2]	Root growth-promoting activity (root growth rate) (Arabidopsis thaliana [1]; [6])	Root growth-promoting activity (root growth rate) (Arabidopsis thaliana [3]; [7])	also measured
COCCCNc1nc(-c2ccccc2)c2cc(Cl)ccc2n1 [Ic3-38]	1.2%	98.8%	99.4%			Root growth-promoting activity (root growth rate) (Arabidopsis thaliana [1]; [4]): 141.9%; Root growth-promoting activity (root growth rate) (Arabidopsis thaliana [3]; [5]): 141.9%
N#Cc1ccc2nc(NCCCO)nc(-c3ccccc3)c2c1 [Ic9-1]				141.5%	141.5%	
OCCCNc1nc(-c2ccccc2)c2ccc(Cl)cc2n1 [Ic10-1]				163.6%	163.6%	
CC(C)CCNc1nc(-c2ccccc2)c2cc(Cl)ccc2n1 [Ic3-10]				120.6%	120.6%	
COCCNc1nc(-c2ccccc2)c2cc(Cl)ccc2n1 [Ic3-7]	2.8%	97.2%	104.1%			Root growth-promoting activity (root growth rate) (Arabidopsis thaliana [1]; [8]): 142.5%; Root growth-promoting activity (root growth rate) (Arabidopsis thaliana [3]; [9]): 142.5%
CC(O)CNc1nc(-c2ccccc2)c2cc(Cl)ccc2n1 (stereo not drawn) [Ic3-39]	−1.3%	101.3%	108.1%	169.0%	169.0%	
CCNc1nc(-c2ccccc2)c2cc(Cl)ccc2n1 [Ic3-24]	2.1%	97.9%	112.5%			Root growth-promoting activity (root growth rate) (Arabidopsis thaliana [1]; [8]): 122.8%; Root growth-promoting activity (root growth rate) (Arabidopsis thaliana [3]; [9]): 122.8%
OCCCNc1nc(-c2ccccc2)c2cccc(Cl)c2n1 [Ic11-1]	2.2%	97.8%	114.5%			Root growth-promoting activity (root growth rate) (Arabidopsis thaliana [1]; [4]): 143.9%; Root growth-promoting activity (root growth rate) (Arabidopsis thaliana [3]; [5]): 143.9%
OCCCCCNc1nc(-c2ccccc2)c2cc(Cl)ccc2n1 [Ic3-5]	3.5%	96.5%	115.4%			Root growth-promoting activity (root growth rate) (Arabidopsis thaliana [1]; test final concentration 0.625 ppm (highest root growth rate)): 134.0%; Root growth-promoting activity (root growth rate) (Arabidopsis thaliana [3]; test final concentration 0.625 ppm (concentration with highest root growth rate)): 134.0%
Clc1cc(Cl)c2nc(NCc3ccco3)nc(-c3ccccc3)c2c1 [Ic12-3]						Root growth-promoting activity (root growth rate) (Arabidopsis thaliana [1]; [10]): 138.8%; Root growth-promoting activity (root growth rate) (Arabidopsis thaliana [3]; [11]): 138.8%
CC(C)=CCNc1nc(-c2ccccc2)c2cc(Cl)ccc2n1 [Ic3-17]				121.3%	121.3%	
CC(C)Nc1nc(-c2ccccc2)c2cc(Cl)ccc2n1 [Ic3-28]				120.4%	120.4%	
CCCNc1nc(-c2ccccc2)c2cc(Cl)ccc2n1 [Ic3-8]						Root growth-promoting activity (root growth rate) (Arabidopsis thaliana [1]; [8]): 136.4%; Root growth-promoting activity (root growth rate) (Arabidopsis thaliana [3]; [9]): 136.4%
OCCCNc1nc(-c2ccccc2)c2c(Cl)cccc2n1 [Ic1-1]						Root growth-promoting activity (root growth rate) (Arabidopsis thaliana [1]; [10]): 150.9%; Root growth-promoting activity (root growth rate) (Arabidopsis thaliana [3]; [11]): 150.9%
OCCCNc1nc(-c2ccccc2)c2cc(C(F)(F)F)ccc2n1 [Ic6-2]						Root growth-promoting activity (root growth rate) (Arabidopsis thaliana [1]; [10]): 155.9%; Root growth-promoting activity (root growth rate) (Arabidopsis thaliana [3]; [11]): 155.9%

— US8722580B2, “Agent for inhibiting cytokinin signaling” (Sumitomo Chemical Company, Limited, priority 2006, dated 2014)
